# Measurements published in PubChem BioAssay AID2060897 (Molecular Pharmacology Branch, DTP, NCI, 2025).
# Tested on: 966289-007-R4-J1-PDC complex spheroid viability
# Assay: Anticancer human tumor 966289-007-R4-J1-PDC patient-derived pancreatic adenocarcinoma cell line growth inhibition [RAS]
# Settings: for viability, T/C: stronger effect = lower value
# Outline: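 Agents were tested in combination matrices in half-log decrements from a top concentration at or near clinical Cmax (10 microM if undetermined). Targets were multi-cell spheroids of tumour lines plus HUVEC and MSC stromal cells.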
# [1] = curve of first compound, second compound 0.0316 µM
# [2] = curve of first compound, second compound 0.1 µM
# [3] = curve of first compound, second compound 0.316 µM
# [4] = curve of first compound, second compound 1 µM
# [5] = curve of first compound, second compound 3.16 µM
# [6] = curve of first compound, second compound 10 µM
# 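Note: spheroids exposed to agents for one week before readout.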
# 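Throughout, for viability, T/C: percent viability relative to DMSO vehicle control wells as 100%.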
smiles,measurement,setting,value
CC1(C)CCC(Nc2ncc(C(F)(F)F)c(-c3c[nH]c4c(P(C)(C)=O)c(C#N)ccc34)n2)CN1 (stereo not drawn) + C#Cc1c(F)ccc2cc(O)cc(-c3ncc4c(N5CC6CCC(C5)N6)nc(OCC56CCCN5CC(F)C6)nc4c3F)c12,IC50,[1],17 nM
same,IC50,[2],15.6 nM
same,IC50,[3],18.3 nM
same,IC50,[4],19.6 nM
same,IC50,[5],19.1 nM
same,IC50,[6],18.6 nM
same,"viability, T/C","second compound 0.0316 µM, first compound 0.000949 µM",113%
same,"viability, T/C","second compound 0.0316 µM, first compound 0.003 µM",107%
same,"viability, T/C","second compound 0.0316 µM, first compound 0.00949 µM",80.6%
same,"viability, T/C","second compound 0.0316 µM, first compound 0.03 µM",19.9%
same,"viability, T/C","second compound 0.0316 µM, first compound 0.0949 µM",15.4%
same,"viability, T/C","second compound 0.0316 µM, first compound 0.3 µM",11.9%
same,"viability, T/C","second compound 0.1 µM, first compound 0.000949 µM",107%
same,"viability, T/C","second compound 0.1 µM, first compound 0.003 µM",131%
same,"viability, T/C","second compound 0.1 µM, first compound 0.00949 µM",76.4%
same,"viability, T/C","second compound 0.1 µM, first compound 0.03 µM",20.8%
same,"viability, T/C","second compound 0.1 µM, first compound 0.0949 µM",13.4%
same,"viability, T/C","second compound 0.1 µM, first compound 0.3 µM",11.3%
same,"viability, T/C","second compound 0.316 µM, first compound 0.000949 µM",102%
same,"viability, T/C","second compound 0.316 µM, first compound 0.003 µM",134%
same,"viability, T/C","second compound 0.316 µM, first compound 0.00949 µM",90.3%
same,"viability, T/C","second compound 0.316 µM, first compound 0.03 µM",20.8%
same,"viability, T/C","second compound 0.316 µM, first compound 0.0949 µM",13.9%
same,"viability, T/C","second compound 0.316 µM, first compound 0.3 µM",12.9%
same,"viability, T/C","second compound 1 µM, first compound 0.000949 µM",106%
same,"viability, T/C","second compound 1 µM, first compound 0.003 µM",131%
same,"viability, T/C","second compound 1 µM, first compound 0.00949 µM",89.3%
same,"viability, T/C","second compound 1 µM, first compound 0.03 µM",27.3%
same,"viability, T/C","second compound 1 µM, first compound 0.0949 µM",13.8%
same,"viability, T/C","second compound 1 µM, first compound 0.3 µM",10.3%
same,"viability, T/C","second compound 3.16 µM, first compound 0.000949 µM",115%
same,"viability, T/C","second compound 3.16 µM, first compound 0.003 µM",135%
same,"viability, T/C","second compound 3.16 µM, first compound 0.00949 µM",91.7%
same,"viability, T/C","second compound 3.16 µM, first compound 0.03 µM",24.1%
same,"viability, T/C","second compound 3.16 µM, first compound 0.0949 µM",12.2%
same,"viability, T/C","second compound 3.16 µM, first compound 0.3 µM",12.1%
same,"viability, T/C","second compound 10 µM, first compound 0.000949 µM",101%
same,"viability, T/C","second compound 10 µM, first compound 0.003 µM",113%
same,"viability, T/C","second compound 10 µM, first compound 0.00949 µM",89.8%
same,"viability, T/C","second compound 10 µM, first compound 0.03 µM",21.9%
same,"viability, T/C","second compound 10 µM, first compound 0.0949 µM",15.1%
same,"viability, T/C","second compound 10 µM, first compound 0.3 µM",9.97%
NC1c2ccccc2OC12CCN(c1cnc3c(N4CCCc5ncccc54)n[nH]c3n1)CC2 (stereo not drawn) + C#Cc1c(F)ccc2cc(O)cc(-c3ncc4c(N5CC6CCC(C5)N6)nc(OCC56CCCN5CC(F)C6)nc4c3F)c12,IC50,[1],> 10000 nM
same,IC50,[2],> 10000 nM
same,IC50,[3],> 10000 nM
same,IC50,[4],> 10000 nM
same,IC50,[5],> 10000 nM
same,IC50,[6],> 10000 nM
same,"viability, T/C","second compound 0.0316 µM, first compound 0.0316 µM",118%
same,"viability, T/C","second compound 0.0316 µM, first compound 0.1 µM",88.8%
same,"viability, T/C","second compound 0.0316 µM, first compound 0.316 µM",98.4%
same,"viability, T/C","second compound 0.0316 µM, first compound 1 µM",97.3%
same,"viability, T/C","second compound 0.0316 µM, first compound 3.16 µM",108%
same,"viability, T/C","second compound 0.0316 µM, first compound 10 µM",92.7%
same,"viability, T/C","second compound 0.1 µM, first compound 0.0316 µM",106%
same,"viability, T/C","second compound 0.1 µM, first compound 0.1 µM",98.1%
same,"viability, T/C","second compound 0.1 µM, first compound 0.316 µM",95.5%
same,"viability, T/C","second compound 0.1 µM, first compound 1 µM",108%
same,"viability, T/C","second compound 0.1 µM, first compound 3.16 µM",99.7%
same,"viability, T/C","second compound 0.1 µM, first compound 10 µM",109%
same,"viability, T/C","second compound 0.316 µM, first compound 0.0316 µM",100%
same,"viability, T/C","second compound 0.316 µM, first compound 0.1 µM",105%
same,"viability, T/C","second compound 0.316 µM, first compound 0.316 µM",95.5%
same,"viability, T/C","second compound 0.316 µM, first compound 1 µM",113%
same,"viability, T/C","second compound 0.316 µM, first compound 3.16 µM",108%
same,"viability, T/C","second compound 0.316 µM, first compound 10 µM",113%
same,"viability, T/C","second compound 1 µM, first compound 0.0316 µM",100%
same,"viability, T/C","second compound 1 µM, first compound 0.1 µM",103%
same,"viability, T/C","second compound 1 µM, first compound 0.316 µM",118%
same,"viability, T/C","second compound 1 µM, first compound 1 µM",109%
same,"viability, T/C","second compound 1 µM, first compound 3.16 µM",95.8%
same,"viability, T/C","second compound 1 µM, first compound 10 µM",118%
same,"viability, T/C","second compound 3.16 µM, first compound 0.0316 µM",101%
same,"viability, T/C","second compound 3.16 µM, first compound 0.1 µM",92.2%
same,"viability, T/C","second compound 3.16 µM, first compound 0.316 µM",109%
same,"viability, T/C","second compound 3.16 µM, first compound 1 µM",101%
same,"viability, T/C","second compound 3.16 µM, first compound 3.16 µM",91.1%
same,"viability, T/C","second compound 3.16 µM, first compound 10 µM",99.7%
same,"viability, T/C","second compound 10 µM, first compound 0.0316 µM",105%
same,"viability, T/C","second compound 10 µM, first compound 0.1 µM",90.1%
same,"viability, T/C","second compound 10 µM, first compound 0.316 µM",120%
same,"viability, T/C","second compound 10 µM, first compound 1 µM",98.8%
same,"viability, T/C","second compound 10 µM, first compound 3.16 µM",108%
same,"viability, T/C","second compound 10 µM, first compound 10 µM",115%
C[C@@H](NC(=O)c1ncnc(N)c1Cl)c1ncc(C(=O)Nc2cc(C(F)(F)F)c(Cl)cn2)s1,"viability, T/C",compound 0.0316 µM,106% [middle of 4 runs]
same,"viability, T/C",compound 10 µM,99.5% [middle of 4 runs]
same,IC50,curve of compound,> 10000 nM
CC(C)NCC(C(=O)N1CCN(c2ncnc3c2C(C)CC3O)CC1)c1ccc(Cl)cc1 (stereo not drawn),"viability, T/C",compound 0.0316 µM,105% [middle of 4 runs]
same,"viability, T/C",compound 0.316 µM,115% [middle of 4 runs]
same,"viability, T/C",compound 1 µM,105% [middle of 4 runs]
same,"viability, T/C",compound 3.16 µM,64% [middle of 4 runs]
same,"viability, T/C",compound 10 µM,34.2% [middle of 4 runs]
same,IC50,curve of compound,5.43 µM [middle of 4 runs]
